Assay results published in the NIST ThermoML archive (doi:10.1021/je7003758).

Test: xn = mol fraction of the nth substance listed
Details: 298.15 K, Liquid

ClCCCl [1,2-dichloroethane] + CN1CCCC1=O
mass density [kg/m3]
Details | x2 = 0.0993 | x2 = 0.2025 | x2 = 0.3012 | x2 = 0.4029 | x2 = 0.4975 | x2 = 0.5832 | x2 = 0.7037 | x2 = 0.7984 | x2 = 0.9029
100 kPa | 1220.4 | 1195.3 | 1172.3 | 1149.2 | 1128.3 | 1110 | 1085.1 | 1066.3 | 1046.2
500 kPa | 1220.7 | 1195.6 | 1172.6 | 1149.4 | 1128.5 | 1110.2 | 1085.4 | 1066.5 | 1046.5
1000 kPa | 1221.2 | 1196 | 1173 | 1149.8 | 1128.9 | 1110.5 | 1085.7 | 1066.8 | 1046.7
1500 kPa | 1221.7 | 1196.5 | 1173.4 | 1150.2 | 1129.2 | 1110.9 | 1086 | 1067.1 | 1047
2000 kPa | 1222.1 | 1196.9 | 1173.7 | 1150.6 | 1129.6 | 1111.2 | 1086.3 | 1067.4 | 1047.3
2500 kPa | 1222.6 | 1197.3 | 1174.2 | 1150.9 | 1129.9 | 1111.5 | 1086.6 | 1067.7 | 1047.6
2900 kPa | – | – | 1174.5 | – | – | – | – | – | –
3000 kPa | 1223 | 1197.7 | – | 1151.3 | 1130.3 | 1111.9 | 1086.9 | 1068 | 1047.8
3400 kPa | – | – | – | 1151.6 | – | – | – | – | –
3500 kPa | 1223.5 | 1198.1 | 1174.9 | – | 1130.6 | – | 1087.2 | 1068.3 | 1048.1
3600 kPa | – | – | – | – | – | 1112.2 | – | – | –
4000 kPa | 1223.9 | 1198.5 | 1175.3 | 1152 | 1131 | 1112.5 | 1087.6 | 1068.6 | 1048.4
4500 kPa | 1224.4 | 1198.9 | 1175.7 | – | 1131.3 | 1112.8 | 1087.8 | 1068.8 | 1048.6
4600 kPa | – | – | – | 1152.3 | – | – | – | – | –
5000 kPa | 1224.8 | 1199.3 | 1176.1 | 1152.8 | 1131.6 | 1113.2 | 1088.1 | 1069.1 | 1048.9
5500 kPa | 1225.2 | 1199.8 | 1176.5 | 1153.1 | 1131.9 | 1113.5 | 1088.4 | 1069.4 | 1049.2
6000 kPa | 1225.7 | 1200.2 | 1176.9 | 1153.5 | 1132.4 | 1113.8 | 1088.7 | 1069.7 | 1049.4
6500 kPa | 1226.1 | 1200.6 | 1177.2 | 1153.9 | 1132.7 | 1114.1 | 1089 | 1070 | 1049.7
6900 kPa | – | – | – | – | – | 1114.4 | – | – | –
7000 kPa | 1226.5 | 1201 | 1177.6 | 1154.2 | 1133 | – | 1089.3 | 1070.3 | 1050
7500 kPa | 1227 | 1201.4 | 1178 | 1154.6 | 1133.3 | 1114.8 | 1089.6 | 1070.5 | 1050.2
7900 kPa | – | – | – | – | 1133.7 | – | – | – | –
8000 kPa | 1227.4 | 1201.8 | 1178.4 | 1154.9 | – | 1115 | 1089.9 | 1070.9 | 1050.6
8500 kPa | 1227.8 | 1202.2 | 1178.8 | 1155.3 | 1134.1 | 1115.4 | 1090.2 | 1071.1 | 1050.8
8900 kPa | – | 1202.6 | – | – | – | – | – | – | –
9000 kPa | 1228.2 | – | 1179.2 | 1155.6 | 1134.4 | 1115.7 | 1090.5 | 1071.3 | 1051.1
9500 kPa | 1228.6 | 1203.1 | 1179.6 | 1156 | 1134.7 | 1116 | 1090.8 | 1071.6 | 1051.3
9900 kPa | – | – | 1180 | – | 1135 | – | – | – | –
10000 kPa | 1229.2 | 1203.6 | – | 1156.4 | – | 1116.4 | 1091.1 | 1072 | 1051.7
10500 kPa | 1229.6 | 1203.9 | 1180.4 | 1156.7 | 1135.4 | 1116.7 | 1091.4 | 1072.2 | 1051.9
10900 kPa | – | – | 1180.7 | – | – | 1117 | – | – | –
11000 kPa | 1230 | 1204.3 | – | 1157.1 | 1135.7 | – | 1091.7 | 1072.5 | 1052.2
11500 kPa | 1230.4 | 1204.6 | 1181.1 | 1157.5 | 1136.1 | 1117.4 | 1092 | 1072.8 | 1052.4
11900 kPa | – | – | – | – | 1136.4 | – | – | – | –
12000 kPa | 1230.8 | 1205.1 | 1181.5 | 1157.8 | – | 1117.7 | 1092.3 | 1073 | 1052.7
12500 kPa | 1231.3 | 1205.5 | 1181.9 | 1158.2 | 1136.8 | 1118 | 1092.6 | 1073.3 | 1053
13000 kPa | 1231.7 | 1205.9 | 1182.2 | 1158.5 | 1137.1 | 1118.3 | 1092.8 | 1073.6 | 1053.2
13400 kPa | – | – | – | – | 1137.4 | – | – | – | –
13500 kPa | 1232.1 | 1206.2 | 1182.6 | 1158.8 | – | 1118.5 | 1093.2 | 1073.9 | 1053.5
14000 kPa | 1232.5 | 1206.6 | 1183 | 1159.2 | 1137.7 | 1118.9 | 1093.4 | 1074.2 | 1053.8
14500 kPa | 1232.9 | 1207 | – | 1159.5 | 1138 | 1119.2 | 1093.7 | 1074.4 | 1054.1
14600 kPa | – | – | 1183.4 | – | – | – | – | – | –
15000 kPa | 1233.3 | 1207.4 | 1183.7 | 1159.8 | 1138.4 | 1119.4 | 1094 | 1074.8 | 1054.3
15400 kPa | – | – | – | – | – | 1119.8 | – | – | –
15500 kPa | 1233.7 | 1207.8 | 1184.1 | 1160.2 | 1138.7 | – | 1094.3 | 1075 | 1054.6
15900 kPa | – | 1208.2 | – | – | – | 1120 | – | – | –
16000 kPa | 1234.2 | – | 1184.4 | 1160.5 | 1139 | – | 1094.6 | 1075.3 | 1054.8
16500 kPa | 1234.6 | 1208.6 | 1184.8 | 1160.9 | 1139.3 | 1120.4 | 1094.8 | 1075.6 | 1055.1
17000 kPa | 1235 | – | 1185.1 | 1161.2 | 1139.7 | 1120.7 | 1095.1 | 1075.9 | 1055.3
17100 kPa | – | 1209 | – | – | – | – | – | – | –
17400 kPa | – | – | 1185.4 | – | – | – | – | – | –
17500 kPa | 1235.4 | 1209.4 | – | 1161.6 | 1140 | 1121 | 1095.4 | 1076.1 | 1055.6
17900 kPa | – | – | – | 1161.8 | – | – | – | – | –
18000 kPa | 1235.8 | 1209.8 | 1185.8 | – | 1140.3 | 1121.2 | 1095.7 | 1076.4 | 1055.8
18400 kPa | – | 1210.2 | – | 1162.2 | – | – | – | – | –
18500 kPa | 1236.2 | – | 1186.1 | – | 1140.6 | 1121.5 | 1096 | 1076.7 | 1056.1
19000 kPa | 1236.6 | 1210.6 | 1186.6 | 1162.6 | 1140.9 | 1121.9 | 1096.3 | 1077 | 1056.4
19400 kPa | – | – | – | – | 1141.3 | – | – | – | –
19500 kPa | 1237 | 1211 | 1186.9 | 1163 | – | 1122.2 | 1096.6 | 1077.2 | 1056.6
20000 kPa | 1237.5 | 1211.4 | 1187.4 | 1163.4 | 1141.9 | 1122.6 | 1096.9 | 1077.5 | 1057.1
